# Data from patent publication US20130209439A1, “INHIBITORS OF PDE4 BINDING TO HSP20” (THE UNIVERSITY COURT OF THE UNIVERSITY OF GLASGOW, priority 2010, published 2013).
# Experiments:
# PDE4 = PDE4 activity associated with HSP20 immunoprecipitates from cardiac myocytes; assay type: cell-based, rat; details: isoprenaline 1 μM
# Procedure: FIG. 3. HSP20 forms a complex with members of the PDE4 family of phosphodiesterases. A (upper panel), Immunopurification (Ips) of HSP20 from cellular lysates isolated from myocytes following treatment with Isoprenaline (1 μM) were blotted for the presence of PDE4D isoforms. B, (lower panel) The PDE4 activity associated with HSP20 Ips was determined. C, Members of the PDE4D sub-family of PDE4s were co-expressed with HSP20 in HEKB2 cells. HSP20 Ips were probed for PDE4D isoforms.
# PDE activity was measured using a radioactive cAMP hydrolysis assay that has been described previously^56. [8-^3H]adenosine cyclic-3,5′-mono-phosphate was sourced from Amersham Biosciences (Little Chalfont, U.K.) and cyclic-3′,5′-mono-phosphate from Sigma.
# Immunopurification (Ips) of HSP20 from cardiac myocytes were screened for associating PDE4 by Western blotting analysis and cAMP PDE assay (FIG. 3A).
# [1] = system: neonatal cardiac myocytes; assay: Cardiac myocyte cell size, manual cross-sectional area; assay type: cell-based, rat; details: 24 hour isoprenaline 10 μM, 30 min pre-treatment with 10 μM peptide
# Procedure: (§1) FIG. 7. Peptide disruption of the PDE4D-HSP20 complex attenuates the hypertrophic response triggered by constant […]-agonist treatment. A, Upper panel. The area covered by isolated cardiac myocytes was used as a measure of cell size. Lower panel, Graphical depiction of the mean areas (N=100) of cells following 24 hours of indicated treatments. B, impedance measurements were used to calculate continuous normalised cell index using exCELLigence technology Normalised mean (n=4) cell index after 24 hours of indicated treatments.
# Cardiomyocytes were plated out on gelatin (Sigma) pre-coated 6-well plates and placed in an incubator at 37° C. and an atmosphere of 5% CO2. After 24 h the cardiomyocytes were cultured in a serum-free condition for 48 h before experiments. The cardiomyocytes were then challenged for 24 h with either 10 μM isoprenaline alone or isoprenaline following a 30 min pre-treatment with 10 μM rolipram, 10 μM bs906 or 10 μM control peptide. Thereafter, cell size was determined on phase-contrast microscope. […] from randomly selected microscope images (400×) were captured digitally and analysed. Cross-sectional area was determined by the following formula: cross-sectional area=(radius)^2×π. Values are expressed as means±SE of five separate culture preparations. A f-test was performed to compare the two groups, and the P values are indicated.
# [2] = system: Phospho-Ser16 HSP20 in neonatal cardiac myocytes; assay: Ser16 phosphorylation of endogenous HSP20 in neonatal cardiac myocytes (Western blot); assay type: cell-based, rat; details: neonatal cardiomyocytes, isoprenaline challenge
# Procedure: FIG. 2. The phosphorylation of HSP20 at Ser16 is modulated by PDE4 activity in cardiac myocytes. A, Neonatal cardiac myocytes were treated with isoprenaline for indicated times with or without pre-treatment with the PDE4-specific inhibitor, rolipram. Cellular lysates were blotted for HSP20 and Phospho-Ser16 HSP20. B, Quantifications of data from FIG. 2A (n=3). * Denotes significance at a level p<0.05 over iso treatment.
# (§2) HEK293B2 cells are a stable cell line overexpressing the GFP-tagged β2AR were cultured as previously described^48. HEK293B2 cells were transiently transfected with wild type HSP20 or a phosphorylation defective HSP20 (S16A) or a phosphorylation mimic HSP20 (S16D). Neonatal cardiac myocytes were prepared and cultured as previously described^30. Cell lysis, immunopurification and western blotting was done as described before by us in some detail^48. Briefly, HEK 293 cells were transiently transfected with wild-type HSP20 by using Polyfect Transfection Reagent (Qiagen). Transfected HEK 293 cells were treated with 10 μM bs906 or 10 μM control peptide for 0, 15, 30, 60 and 120 min. Control and treated transfected HEK 293 cells were then washed thrice with ice cold PBS (phosphate buffered saline) before cellular lysates were prepared. Cellular lysates were prepared in lysis buffer containing 25 mM Hepes, pH 7.5, 2.5 mM EDTA, 50 mM NaCl, 50 mM NaF, […], 10% (v/v) glycerol, 1% (v/v) Triton X-100 and Complete™ EDTA-free protease inhibitor cocktail tablets (Roche). Protein concentration of lysates were determined using the Bradford assay and all samples were equalised for protein concentration. Proteins were separated by SOS/PAGE (4-12% Bis-Tris gels) and transferred onto nitrocellulose membranes for Western blotting. Antibodies were used to detect phospho-proteins and native proteins in lysates from control and treated cells
# To determine whether inhibition of PDE4 activity had similar effects on endogenous phospho-HSP20 levels in heart cells, similar experiments were undertaken using neonatal cardiomyocytes (FIG. 2).
# [3] = system: Phospho-Ser16 HSP20 in HEKB2 cells; assay: Ser16 phosphorylation of HSP20 in HEKB2 cells overexpressing HSP20 (Western blot); assay type: cell-based; details: HEKB2 cells transfected with wt HSP20, isoprenaline 1 μM, indicated times
# Procedure: FIG. 1. The phosphorylation of HSP20 at Ser16 is modulated by PDE4 activity in HEKB2 cells. A, HEKB2 cells overexpressing HSP20 or HSP20 ser16-Ala mutant were treated with isoprenaline for indicated times. Cellular lysates were blotted for HSP20 and Phospho-Ser16 HSP20. B, HEKB2 cells overexpressing HSP20 were treated with isoprenaline for indicated times, Cellular lysates were blotted for HSP20 and Phospho-Ser16 HSP20. C, HEKB2 cells overexpressing HSP20 were treated with isoprenaline for indicated times following pre-treatment with the PDE4-specific inhibitor, rolipram. Cellular lysates were blotted for HSP20 and Phospho-Ser16 HSP20. D, Quantifications of data from FIGS. 1B and 1C (n=4). * Denotes significance at a level p<0.05 E, Lysate from untransfected HEKB2 cells was blotted for HSP20 and Phospho-Ser16 HSP20.
# as §2
# In contrast to this, when we transfected these cells with a phospho-null mutant form, Ser16Ala-Hsp20, then no such change was observed (FIG. 1A). In order to evaluate whether PDE4 activity played a role in regulating this phosphorylation process in Hsp20-transfected HEKB2 cells, cells that had either been pre-treated or not with the PDE4 selective inhibitor rolipram were subsequently challenged with isoprenaline (1 μM) (FIGS. 1B and C). […] Endogenous levels of phospho-HSP20 or HSP20 were not detectable in HEKB2 cells (FIG. 1E).
# [4] = system: neonatal cardiac myocytes; assay: Cardiac myocyte size by xCELLigence impedance (normalised cell index); assay type: cell-based, rat; details: 24 hour isoprenaline 10 μM, 30 min pre-treatment with 10 μM peptide
# Procedure: as §1
# The E-Plate 96 (Roche) was used for these experiments^45. This comprises a 96-well plate with integral sensor electrode arrays to measure cell impedance. […] E-plate 96 is a 96-well microtiter plate with incorporated gold cell sensor arrays in the bottom, which allows impedance inside each well to be monitored and assayed in real time. […] The impedance measured between electrodes in an individual well depends on electrode geometry, ion concentration in the well and whether or not cells are attached to the electrodes^45. In the absence of cells, electrode impedance is mainly determined by the ion environment both at the electrode/solution interface and in the bulk solution. […] Small changes in impedance can also be recorded when cells temporally change shape or size in response to agonists^46,57. […]
smiles,measurement,setting,value
CC(C)NCC(O)c1ccc(O)c(O)c1 (centres unmarked) [isoprenaline],increase in PDE4 activity associated with HSP20 immunoprecipitates vs untreated lysates,PDE4,2.5 fold
same,cell size (cross-sectional area) of cardiac myocytes,[1],marked increase in cell size
same,endogenous phospho-HSP20 levels,[2],induced an increase in endogenous phospho-HSP20 levels
same,phosphorylation of Hsp20 at Ser16,[3],time dependent phosphorylation of Hsp20 at Ser16
same,"cell size (normalised cell index, impedance) of cardiac myocytes",[4],marked increase in cell size
